One may read the Kd as the equilibrium constant for the complex coming apart.

Values joined by “and” are separate entries in the source; they are usually repeats but may differ in a detail not shown here. Equal entries are not always repeated.

This is an account of results in paper PMC10107299, “Neutralizing the Impact of the Virulence Factor LecA from Pseudomonas aeruginosa on Human Cells with New Glycomimetic Inhibitors” (Angewandte Chemie (International Ed. in English), 2023).

One series has as its target T1, LecA (Pseudomonas aeruginosa, UniProt Q05097).
T1 construct: made in house
As to the kind of experiment: Isothermal titration microcalorimetry (ITC) with LecA. The format is binding. The following applies: for -TΔS (supplement) / ΔS: ITC average ± s.d.; for Relative potency r.p. (ITC): compared to respective monovalent compound in each series; for ΔG, individual titration / ΔH, individual titration: LecA 35-182 µM, ligand 100 µM-1.5 mM as headed. The source says:
Due to the high solubility of the propanamides in the pyridine series and the sulfonated ligand L2, we determined binding thermodynamics with LecA using isothermal titration microcalorimetry (ITC, Figure 3, Figures S5–S9). […] In both cases, the enthalpy of binding increased approximately twofold (I2: ΔH=−23.9±1.2 kcal mol^−1, L2: ΔH=−19.5±1.3 kcal mol^−1) compared to their monovalent analogues (G2: ΔH=−11.0±0.2 kcal mol^−1, K2: ΔH=−10.3±0.1 kcal mol^−1), while the binding entropy was increased approximately threefold (G2: −TΔS=3.8±0.2 kcal mol^−1 vs. I2: −TΔS=13.7±1.3 kcal mol^−1, K2: −TΔS=3.2±0.2 kcal mol^−1 vs. L2: −TΔS=9.4±1.3 kcal mol^−1).
Figure 3 Direct binding of selected ligands to LecA by ITC (N=3). Titration of LecA (50 μM) with divalent sulfonated ligand L2 (250 μM) is depicted. Relative potencies (r.p.) were calculated compared to respective monovalent compound in each series and […]. TEXT PRINTED IN THE PICTURE: G2: ΔG [kcal/mol]: -7.2 ± 0.1; ΔH [kcal/mol]: -11.0 ± 0.2; -TΔS [kcal/mol]: 3.8 ± 0.2; N: 1.07 ± 0.06; Kd [nM]: 5 270 ± 30; r.p.: 1 | I2: ΔG [kcal/mol]: -10.2 ± 0.2; ΔH [kcal/mol]: -23.9 ± 1.2; -TΔS [kcal/mol]: 13.7 ± 1.3; N: 0.43 ± 0.01; Kd [nM]: 35.1 ± 12.5; r.p.: 150 | J2: ΔG [kcal/mol]: -9.7 ± 0.2; ΔH [kcal/mol]: -13.5 ± 0.4; -TΔS [kcal/mol]: 3.8 ± 0.5; N: 0.61 ± 0.06; Kd [nM]: 79.5 ± 32.8; r.p.: 66 | K2: ΔG [kcal/mol]: -7.1 ± 0.1; ΔH [kcal/mol]: -10.3 ± 0.1; -TΔS [kcal/mol]: 3.2 ± 0.2; N: 1.08 ± 0.13; Kd [nM]: 6 230 ± 440; r.p.: 1 | L2: ΔG [kcal/mol]: -10.1 ± 0.1; ΔH [kcal/mol]: -19.5 ± 1.3; -TΔS [kcal/mol]: 9.4 ± 1.3; N: 0.52 ± 0.06; Kd [nM]: 39.9 ± 3.6; r.p.: 156 […]
Expression and purification of LecA as well as competitive binding by fluorescence polarization was performed as described by Joachim et al..[9] The assay was performed in TBS/Ca2+ buffer (20 mM Tris, 137 mM NaCl, 2.6 mM KCl at pH 7.4 supplemented with 1 mM […]
CaCl2) in presence of 25% DMSO. […]
Isothermal titration calorimetry was performed on an iTC200 (Malvern Panalytical) and the data were analyzed using Microcal Origin software (Malvern Panalytical). LecA (50 - 180 […]
K2 and L2 and TBS/Ca2+ buffer supplemented with 5% DMSO for I2 and J2. Steep titration slopes achieved with the divalent ligands were the result of high amount of protein present and the high binding affinity of the ligand (high ‘value of c’).[10] However, LecA protein […]
low heat released upon binding. […]
(ITC needs no label: the signal is the heat of the interaction.)

Series [1] in a line: In vitro metabolic stability, human liver microsomes. The format is in vitro ADME. The following applies: N=3, read-out: CLint HLM. As for the experimental part: We then determined the in vitro metabolic stability in plasma and liver microsomes as well as plasma protein binding for a selected subset of the synthesized LecA inhibitors, i.e. D1, D2, H1, H2 and L2 and compared them to the parent bisacylhydrazone 14 (Table 2). […] The metabolic stability of the compounds differed in presence of human liver microsomes (HLM). Introduction of a pyridine ring decreased stability (H1 CLint=28.6 μL min^−1/mg protein, H2 CLint=32.5 μL min^−1/mg protein) compared to the benzene analogues (D1 CLint=21.9 μL min^−1/mg protein, D2 CLint=21.0 μL min^−1/mg protein) and to the parent acylhydrazone 14 (CLint=19.6 μL min^−1/mg protein). […]
mixer (Eppendorf). Acetonitrile and caffeine were dispensed using a Mantis Formulatrix. Then samples were centrifuged for 20 min at 2.270 x g at 4 °C and the supernatants were transferred to 96-well Greiner V-bottom plates. Peak areas of each compound and of the internal standard were analyzed using the MultiQuant 3.0 software (AB Sciex). Peak areas of the respective compound were normalized to the internal standard peak area and to the respective peak areas at time point 0 min: (C/D)/(A/B) with A: peak area of the compound at time point 0 min, B: peak area of the internal standard at time point 0 min, C: peak area of the compound at the respective time point, D: peak area of the internal standard at the respective time point.
In vitro metabolic stability assay
Liver microsomes (mouse and human, Thermo Fisher) were thawed slowly on ice. 20 mg/mL of microsomes, 2 µL of a 100 µM solution of every compound and 183 µL of 100 mM phosphate buffer were incubated 5 min at 37 °C in a water bath. Reactions were initiated using 10 µL of 20 mM NADPH (CarlRoth). Samples were incubated in three replicates at 37 °C under gentle agitation at 150 rpm. At 0, 5, 15, 30, and 60 min, reactions were terminated by the addition of 180 µL acetonitrile using a Mantis Formulatrix dispenser. Samples were vortexed for 5 min using an Eppendorf MixMate vortex mixer and centrifuged at 2.270 x g for 20 min at 4 °C. The supernatants were transferred to 96-well Greiner V-bottom plates, sealed and analyzed according to the section HPLC-MS analysis. Peak areas of the respective time point of the compounds were normalized to the peak area at time point 0 min. Then half-life was calculated using linear regression (Microsoft Excel). Clint [µL/min/mg protein] was calculated using the following formula: […]

Setting [2] is: ITC average, 25 °C, TBS/Ca2+ buffer (5% DMSO for I2 and J2), N=3.
[3] abbreviates: Kd (ITC), ITC average, 25 °C, TBS/Ca2+ buffer.
Where [4] appears, read: Kd, individual titration, single ITC titrations, three per ligand.
Setting [5] is: single ITC titrations, three per ligand.

T1 sequence (Q05097 whole entry): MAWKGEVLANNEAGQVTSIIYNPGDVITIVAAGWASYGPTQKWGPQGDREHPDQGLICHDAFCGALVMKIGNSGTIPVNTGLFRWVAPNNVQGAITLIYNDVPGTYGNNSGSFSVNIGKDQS

Regarding `COc1ccc(NC(=O)CCc2ccc(O[C@@H]3O[C@H](CO)[C@H](O)[C@H](O)[C@H]3O)cc2)cn1` [Compound G2], at LecA (25 °C), the “-TΔS (supplement)” value is recorded as 3.8 ± 0.2 kcal/mol and the ΔS is -12.8 ± 0.6 cal/mol/K. Besides, the “N (stoichiometry)” value on LecA (ITC average, 25 °C, N=3) worked out at 1.07 ± 0.06. Further, on LecA (setting [2]), the “-TΔS” value turned out to be 3.8 ± 0.2 kcal/mol; the ΔG was -7.2 ± 0.01 kcal/mol and -7.2 ± 0.1 kcal/mol; the ΔH is recorded as -11.0 ± 0.2 kcal/mol. The compound also came in with a Kd on LecA (setting [3]) of 5.27 ± 0.03 µM. Besides, the Kd on LecA (setting [4]) is 5.32 µM and 5.26 µM and 5.24 µM. Besides, the “Relative potency r.p. (ITC)” value at LecA is given as 1. At LecA (setting [5]), the “N, individual titration” value is 1.10 and 1.13 and 0.99; the “ΔS, individual titration” value is -12.5 cal/mol/K and -13.7 cal/mol/K and -12.3 cal/mol/K; the “ΔG, individual titration” value was -7.2 kcal/mol; the “ΔH, individual titration” value was -10.9 kcal/mol (2×) and -11.3 kcal/mol.
As to `O=C(/C=C/c1ccc(O[C@@H]2O[C@H](CO)[C@H](O)[C@H](O)[C@H]2O)cc1)Nc1ccc(OCCOc2ccc(NC(=O)/C=C/c3ccc(O[C@@H]4O[C@H](CO)[C@H](O)[C@H](O)[C@H]4O)cc3)cn2)nc1` [Compound H1], the microsomal CLint at 1 µM in series [1] came out at 28.6 µL/min/mg.
On the same count and under the same terms, under `O=C(CCc1ccc(O[C@@H]2O[C@H](CO)[C@H](O)[C@H](O)[C@H]2O)cc1)Nc1ccc(OCCOc2ccc(NC(=O)CCc3ccc(O[C@@H]4O[C@H](CO)[C@H](O)[C@H](O)[C@H]4O)cc3)cc2)cc1` [Compound D2] stands 21 µL/min/mg; under `O=C(CCc1ccc(O[C@@H]2O[C@H](CO)[C@H](O)[C@H](O)[C@H]2O)cc1)Nc1ccc(OCCOc2ccc(NC(=O)CCc3ccc(O[C@@H]4O[C@H](CO)[C@H](O)[C@H](O)[C@H]4O)cc3)cn2)nc1` [Compound H2], 32.5 µL/min/mg.
Consider `O=C(CCc1ccc(O[C@@H]2O[C@H](CO)[C@H](O)[C@H](O)[C@H]2O)cc1)Nc1ccc(CCc2ccc(NC(=O)CCc3ccc(O[C@@H]4O[C@H](CO)[C@H](O)[C@H](O)[C@H]4O)cc3)cc2S(=O)(=O)O)c(S(=O)(=O)O)c1` [Compound L2], for which, in series [1], the microsomal CLint at 1 µM came to 9.2 µL/min/mg. For the same compound, at LecA (25 °C), the “-TΔS (supplement)” value came to 9.4 ± 1.3 kcal/mol and the ΔS is given as -31.6 ± 4.4 cal/mol/K. On LecA (ITC average, 25 °C, N=3), the “N (stoichiometry)” value amounted to 0.52 ± 0.06. In addition, at LecA (setting [2]), the “-TΔS” value came to 9.4 ± 1.3 kcal/mol, the ΔG is recorded as -10.1 ± 0.1 kcal/mol and the ΔH is recorded as -19.5 ± 1.3 kcal/mol. In addition, the Kd at LecA (Kd (ITC), ITC average, 25 °C, TBS/Ca2+ buffer (5% DMSO for I2 and J2), N=3) came out at 0.0399 ± 0.0036 µM. Besides, the Kd at LecA (setting [4]) is 0.0448 µM and 0.038 µM and 0.0368 µM. Moreover, the “Relative potency r.p. (ITC)” value on LecA is recorded as 156. Further, on LecA (setting [5]), the “N, individual titration” value is 0.56 and 0.55 and 0.44; the “ΔS, individual titration” value was -27.5 cal/mol/K and -37.6 cal/mol/K and -29.6 cal/mol/K; the “ΔG, individual titration” value was -10.0 kcal/mol and -10.1 kcal/mol (2×); the “ΔH, individual titration” value is -18.9 kcal/mol and -18.3 kcal/mol and -21.4 kcal/mol.
On to `O=C(/C=C/c1ccc(O[C@@H]2O[C@H](CO)[C@H](O)[C@H](O)[C@H]2O)cc1)Nc1ccc(OCCOc2ccc(NC(=O)/C=C/c3ccc(O[C@@H]4O[C@H](CO)[C@H](O)[C@H](O)[C@H]4O)cc3)cc2)cc1` [Compound D1], for which the microsomal CLint at 1 µM in series [1] is 21.9 µL/min/mg.
Consider `Cc1ccc(NC(=O)CCc2ccc(O[C@@H]3O[C@H](CO)[C@H](O)[C@H](O)[C@H]3O)cc2)cc1S(=O)(=O)O` [Compound K2], for which, on LecA (25 °C), the “-TΔS (supplement)” value amounted to 3.2 ± 0.2 kcal/mol and the ΔS is listed as -10.7 ± 0.6 cal/mol/K. On LecA (ITC average, 25 °C, N=3), the “N (stoichiometry)” value came to 1.08 ± 0.13. In addition, on LecA (setting [2]), the “-TΔS” value is 3.2 ± 0.2 kcal/mol, the ΔG was -7.1 ± 0.1 kcal/mol and the ΔH was -10.3 ± 0.1 kcal/mol. This compound returned a Kd at LecA (setting [3]) of 6.23 ± 0.44 µM. Moreover, the Kd at LecA (setting [4]) was 6.33 µM and 5.65 µM and 6.71 µM. Further, the “Relative potency r.p. (ITC)” value at LecA is reported as 1. In addition, on LecA (setting [5]), the “N, individual titration” value is 1.25 and 1.05 and 0.94; the “ΔS, individual titration” value was -10.0 cal/mol/K and -11.3 cal/mol/K and -10.7 cal/mol/K; the “ΔG, individual titration” value was -7.1 kcal/mol (2×) and -7.2 kcal/mol; the “ΔH, individual titration” value is -10.3 kcal/mol and -10.1 kcal/mol and -10.4 kcal/mol.
